The record followed here is patent publication US10946099B2, “Compositions for photodynamic therapy and fluorescence diagnosis of cancers and other diseases” (VISION GLOBAL HOLDINGS LIMITED, priority 2017, dated 2021).

One series relates to HCT116 cells. Description: Intracellular ROS generation (cellrox reagent). The format is cell-based. The method, then: To examine intracellular ROS generation by PpIX and PpIX-TF conjugate (TF01), HCT116 cells were seeded in 24-well, glass-bottomed plate and incubated with cellrox reagent (Thermo Fisher Scientific). After 30 min, the cells were washed three times by PBS and treated with PpIX or PpIX-TF conjugate (TF01). After 24 h of incubation, the cells were washed twice with PBS and then exposed to a 10 mW/cm^2 using a 635-nm laser source for 30 min. After irradiation, the fluorescence intensity of cells was measured by a microplate reader with excitation/emission at 485/520 nm. The values are expressed as fluorescence intensity ratio to control.

Series [1] is described as follows: Fluorescence emission spectroscopy. It is filed as physicochemical. From the text:
A BMG fluostar spectrofluorophotometer was used to record fluorescent emissions of PpIX or PpIX-TF conjugate (referred to herein as TF01) suspended in aqueous buffer. A UV-vis spectrophotometer was used to record the absorbance spectra of PpIX and TF.

A further series relates to HCT 116. The series is described as follows: Cell phototoxicity assay (MTT). The format is cell-based. The following applies: concentration greater than about 25 μg/ml. The method, then:
(§1) To determine cell viability under dark conditions, cells (1×10^4 cells/well) were seeded onto 96-well plates and incubated for 24 h at 37° C. After cell stabilization, the culture medium was replaced with 100 μl of culture medium containing free PpIX or PpIX-TF conjugate (referred to herein as TF01), followed by incubation for 24 h. The cells were then washed twice with serum-free medium and cell viability was evaluated by MTT assay after 48 h. To determine the in vitro phototoxicity after laser irradiation, cells (1×10^4 cells/well) were seeded onto 96-well plates and incubated for 24 h at 37° C. The cells were then treated with free PpIX or a PpIX-TF conjugate (TF01). After 24 h incubation, the cells were washed twice with serum-free medium and irradiated at a light intensity of 150 mW/cm^2 using 450 nm or 627 nm LED light source for 30 min or 10 mW/cm^2 using a 635-nm laser source for 5-30 min (3 J/cm^2 to 18 J/cm^2). The cell viability of irradiated cells was evaluated by MTT assay after 24 h of incubation.
(§2) For each cancer cell line, measurements were performed in dark and in the presence of 450 nm blue laser light or 627 nm red light.

A further series deals with HepG2. Description: Cell phototoxicity assay (MTT). It is filed as cell-based. The settings on record: concentration greater than about 25 μg/ml. The method, then:
as §1, §2

The nature of series [2]: Cell phototoxicity assay under different dosages of 635-nm laser excitation (FIG. 16). The format is cell-based. The following applies: when laser dosage were increased (635-nm laser, 3 J/cm^2 to 18 J/cm^2). The method, then:
as §1
When laser dosage were increased, the corresponding IC50 values of PpIX-TF conjugate (TF01) were decreased.

A further series has as its system SK-Hep-1 cell. The series is described as follows: Soft agar colony-formation assay. The format is cell-based. The settings on record: 10 ug/ml, 3 J/cm^2, 635-nm laser source. The method, then: To estimate the anchorage-independent growth ability of cells treated by PpIX-TF conjugate (referred to herein as TF01), 3×10^4 cells of SK-Hep-1 cell were seeded in 35 mm dish and incubated for 24 h at 37° C. The cells were then treated with a PpIX-TF conjugate (TF01) or medium control. After 24 h incubation, the cells were washed twice with serum-free medium and irradiated at a light intensity of 10 mW/cm^2 using a 635-nm laser source for 5 min. Then, 5000 cells were suspended in 0.3% noble agar and cells were allowed to grow for another 2 weeks. Colonies were stained with 0.02% Giemsa Stain Solution, and documented by scanning.

Series [3] deals with colorectal carcinoma cell line HCT116. The series is described as follows: Cell uptake and imaging (fluorescence microscopy). It is filed as cell-based. The method, then: Cancer cells were used to detect and compare cellular uptake of PpIX and PpIX-TF conjugate (referred to herein as TF01) in vitro. The cells were cultured in medium supplemented with 10% fetal bovine serum at 37° C. and 5% CO2. After incubating cells with PpIX-TF conjugate (TF01), images were viewed by confocal microscopy.
FIG. 9 depicts the fluorescence microscopic analysis of cellular uptake of recombinant TF in a colorectal carcinoma cell line HCT116.

Series [4] concerns liver cancer cell line SK-Hep-1. Description: Cellular localization with MitoTracker, LysoTracker and ER-Tracker. It is filed as cell-based. As to the method:
The Mitotracker, lysotracker and ER-tracker (Thermo Fisher Scientific) were used to label mitochondria, lysosome and endoplasmic reticulum (ER) respectively. Two measures of correlation, the Pearson correlation coefficient (PCC) and the Mander's overlap coefficient (MOC) were calculated as depicted in the table below.

Series [5] is described as follows: Singlet oxygen / ROS generation by RNO bleaching. It is filed as physicochemical. The following applies: relative to positive control methylene blue; RNO bleaching near 440 nm. As to the method:
To determine singlet oxygen generation, singlet oxygen detection method was applied to a 3 ml aqueous solution containing the singlet oxygen generator, 50 µM of RNO and 8 mM of imidazole. The detection for absorption intensity of RNO near 440 nm was monitored to reflect the production of ROS by a UV-vis spectrophotometer after time intervals of laser exposure.

Series [6] deals with human hepatoma SK-HEP 1 xenograft. Description: In vivo PDT efficacy. The settings on record: 400 mg/kg intravenously, followed by laser application (230 mW/cm^2, 260 J/cm^2, 635-nm); nude mice. As to the method:
To test the in vivo PDT efficacy of PpIX-TF conjugate, nude mice bearing human hepatoma SK-HEP 1 xenograft were intravenously treated with PBS, 200 mg/kg or 400 mg/kg PpIX-TF conjugate (TF01) respectively (n=3-4 per group), followed by the laser application (at a light intensity 230 mW/cm^2, 260 J/cm^2, using a 635-nm laser source). Visible tumors were measured using two orthogonal measurements L and W (perpendicular to L), the volumes were calculated using the formula V=LW2/2 and recorded.

Series [7] is described as follows: Solubility and dispersibility in aqueous buffer. The following applies: compared to PpIX in aqueous Tris-HCl buffer, 20 mM, pH 8.5. The format is physicochemical. The method, then: Improvement in solubility and dispersibility of the PpIX-TF conjugate was compared to PpIX in aqueous Tris-HCl buffer, 20 mM, pH 8.5 (FIG. 6).

For the compound `OO` [H2O2, reference compound], in the series on HCT116 cells (100 uM, positive control, HCT116), the “intracellular ROS generation” value is recorded as “increase”.

Turning to “Batch 1: exemplary batch of PpIX-TF conjugate (TF01), molar ratio of PpIX to TF protein 0.690”, in series [1] (5 mg/ml (approximately 53 μM PpIX) in Tris-HCl buffer 20 mM, pH 8.5, versus control 60 μM PpIX with 5% DMSO), the emission properties result is given as “greater”.

With “TF01: conjugate of PpIX and recombinant TF (globin 2αβ2 tetramer); PpIX non-covalently associated with the protein”, the “survival rates of the cells” value in the series on HCT 116 (irradiation 450 nm blue light), with HCT 116 (irradiation 627 nm red light), in the series on HepG2 (irradiation 450 nm blue light) and in the series with HepG2 (irradiation 627 nm red light) was “markedly decrease” each time. The “IC50 values under different dosages of 635-nm laser excitation” value in series [2] was “decreased”. In addition, the “cancer cell soft agar colony formation” value in the series on SK-Hep-1 cell is on record as “significantly inhibit”. For the same compound, in [3], the “cellular uptake / distribution of fluorescent signals” value was “widely distributed in the cytoplasm”. Besides, the “Mander's overlap coefficient (MOC)” value in series [4] (Endoplasmic reticulum) turned out to be 0.6908; in [4] (Lysosome) it was 0.4866; in [4] (Mitochondria), 0.4684. Moreover, the figures for the “Pearson correlation coefficient (PCC)” value in series [4] (Endoplasmic reticulum), in [4] (Lysosome) and in series [4] (Mitochondria) were 0.6076, 0.4974 and 0.4922, respectively. In addition, the “quantum yield of ROS” value in series [5] is “almost double that of methylene blue”. The “intracellular ROS generation” value in the series with HCT116 cells (50 um/ml (batch 2), approximately 0.71 uM PpIX, 635-nm laser 10 mW/cm^2 30 min, versus control PpIX 0.75 uM) is given as “greatly enhance”. Moreover, the tumor volume result in [6] is on record as “tumor regression”. For the same compound, the “pH dependence of the emission intensity” value in series [1] (50 mM Tris-HCl or potassium phosphate buffer, λmax=625 nm) is on record as “wide pH range”. Also, in series [7], the solubility and dispersibility entry is “Improvement”.
